Measurements from patent publication US9303076B2, “Cell-penetrating peptides and uses thereof” (Hoffmann-La Roche Inc., priority 2010, dated 2016).
“Also recorded” adds a separate entry of the source.

Experiments:
siRNA duplex = assay: gel-shift assay of peptide/siRNA complex formation; format: binding; settings: ethidium bromide staining
Procedure: Gel-shift assays were performed by mixing […] siRNA duplex with the respective peptides in a given molar ratio in water. The complexes were formed for 1 hour at 37° C. and analyzed on a 2.5% agarose gel with ethidium bromide (run: 40 minutes at 125 V). For proteinase K treatment, 1 μl proteinase K was added to a standard reaction as indicated above.
Mechanisms that may explain transfection functionalities of charged peptides such as TAT or protamine include the formation of complexes between positively charged peptides and negatively charged nucleic acids. Such complexes enable peptide-mediated membrane-interacting and/or endosome escape functionalities to transfer the complexed nucleic acids into the cytosol of cells (Law, M. et al. (2008) Biotechnol. Prog. 24, 957-963) In order to address whether the above mechanism may apply to the NTRN-derived peptide as well gel-shift assays were performed (cf. FIG. 8). To this end, siRNA was co-incubated with increasing concentrations of peptide, followed by analyses of their migration pattern via gel electrophoresis.

human Eg5 mRNA = assay: peptide-mediated transfection of siRNA targeting Eg5 (mRNA level, CytoTox-Glo apoptosis); format: cell-based
Procedure: The siRNA sequence specificity of NRTN was investigated via analysis of the peptide's ability to transfect a siRNA duplex targeting human Eg5 mRNA. The Eg5 knockdown dependent induction of apoptosis was determined by performing a CytoTox-Glo cytotoxicity assay (Promega Inc.). The mRNA values obtained at 1 μM were set to 100% to show dose dependent effects. Induction of apoptosis is expressed as percent of medium control. Aha1 siRNA is shown as black filled squares; luciferase siRNA is shown as non-filled circles.
Then, the cells were treated with a luminogenic peptide substrate in order to measure dead-cell protease activity, which is released from cells that have lost membrane integrity. […] The luminescence of this assay therefore represents dead cells. The 96 well plates were then analyzed in an InfiniteF200 luminescence reader.
An effective reduction of cellular Eg5 mRNA levels was found at concentrations of <10 μM. […] It is known that effective depletion of Eg5 mRNA causes mitotic arrest resulting in the onset of apoptosis (Blangy, A. et al. (1995), supra). […] Transfections with control siRNA under identical conditions were not cytotoxic either, thus confirming that the apoptotic phenotype was caused by Eg5 mRNA depletion.

human Aha1 mRNA = assay: siRNA transfection in the presence of serum; format: cell-based; settings: serum-containing medium
Procedure: NRTN was analyzed for its ability to transfect siRNA duplexes in the absence (A) and presence (B) of serum in the transfection medium. The experimental approach was the same as in FIG. 3. The assay was either carried out in normal RPMI 1640 growth medium containing 10% FCS (B) or for three hours in OptiMEM reduced serum medium followed by change of the medium back to normal growth medium (A). The mRNA values obtained at 1 μM were set to 100% to show dose dependent effects. Aha1 siRNA is shown as black filled squares; luciferase siRNA is shown as non-filled circles.
Most of the assays described herein were performed under the “standard in vitro conditions” for the detection of peptide-mediated transfection that are well established in the art (see, e.g., Simeoni, F. et al. (2003) Nucleic Acids Res. 31, 2717-2724; Richard, J. P. et al. (2005) J. Biol. Chem. 280, 15300-15306; Abes, R. et al. (2007) Biochem. Soc. Trans. 35, 775-779; Kumar, P. et al. (2007) Nature 448, 39-43; Mueller, J. et al. (2008) Bioconjug. Chem. 19, 2363-2374; Sugita, T. et al. (2008) Br. J. Pharmacol. 153, 1143-1152). Accordingly, the incubation for the initial “transfection step” is performed under basically serum free conditions. The addition of serum at this step interferes with the transfection ability of the CPPs (cf. FIG. 13; see also Ignatovich, I. A. et al. (2003), supra). […]

[1] = tested on: hCMEC/D3 brain endothelial cells; assay: uptake into brain endothelial cells (blood-brain-barrier cell culture model); format: cell-based; settings: FITC-conjugated peptide (N- and C-terminal), 5 μM, 1 h, 37° C.; hCMEC/D3 or primary human brain endothelial cells
Procedure: Fluorescein isothiocyanate (FITC)-conjugated NRTN peptides (N-terminal and C-terminal conjugation, respectively) were incubated with hCMEC/D3 brain endothelial cells at 5 μM for 1 h at 37° C. Subsequently, the cells were washed and fixed. Images were taken using a fluorescence microscope.
In order to evaluate potential interactions of the NRTN-derived peptide with endothelial cells forming the blood-brain-barrier, hCMEC/D3 cells or primary human brain endothelial cells were exposed to the NRTN-derived peptide in a blood-brain-barrier (BBB) model (Weksler, B. B. et al. (2005) FASEB J. 19, 1872-1874; Poller, B. et al. (2008) J. Neurochem. 107, 1358-1363). […] Thus, the NRTN-derived peptide localizes to a compartment that is important for BBB functionality (that is, for mediating and controlling transport across the BBB).

MCF7 cells [2] = tested on: MCF7 cells
Procedure: (§1) MCF7 cells were seeded at a density of 15.000 cells per well in 96 well plates. The cells were incubated for 24 hours at 37° C., 5% CO2 and 85% humidity in RPMI 1640 medium supplemented with 10% FCS (fetal calf serum) and L-glutamine. For functional assays, the cells were washed in OptiMEM medium and RPMI 1640 was replaced with OptiMEM (all reagents were purchased from Invitrogen Corporation, Carlsbad, Calif., USA). Complexes of siRNAs and peptides were formed by incubation of 100 nM siRNA with the indicated peptide concentrations in OptiMEM for 30 minutes at room temperature. The complexes were added to the cells and incubated for 3 hours. Subsequently, OptiMEM was replaced with normal RPMI 1640 growth medium. The cells were incubated for further 21 hours for generating bDNA lysates, and for further 45 hours for performing CellTiter-Glo or CytoTox-Glo assays (cf. below).
(§2) In order to measure the number of living cells the CellTiter-Glo Luminescent Cell Viability Assay (Promega Corporation, Madison, Wis., USA) was used according to the protocol of the manufacturer. The cells were incubated for 48 hours in the presence of peptides and siRNAs. Subsequently, the cells are lysed, and a luminescent signal proportional to the amount of ATP present is generated which, in turn, is proportional to the number of living cells present. Luminescence was analyzed in an InfiniteF200 luminescence reader.
(§3) Based on this observation, GAPDH mRNA levels were used as a general readout for toxicity: an average measurement of 100% GAPDH mRNA relative to the medium control was considered as non-toxic, values between 99% and 70% as moderate toxic, and values of less than 70% as toxic (cf. FIG. 3).
(§4) Similarly, peptides resulting in GAPDH mRNA values >70% were classified as “nontoxic”, whereas peptides that caused a reduction of GAPDH mRNA to lesser values were termed “toxic”.

MCF7 cells [3] = assay: growth inhibition/toxicity (CellTiter-Glo viability, GAPDH mRNA levels)
Procedure: as §1, §2, §3, §4

GAAEAAARVYDLGLRRLRQRRRLRRERVRA (NRTN peptide sequence; listed as Homo sapiens)
complex formation with siRNA (siRNA duplex): able to form stable complexes with siRNA
apoptotic phenotype upon siEg5 transfection (human Eg5 mRNA; CytoTox-Glo): an apoptotic phenotype was observed
peptide concentration giving effective reduction of cellular Eg5 mRNA levels (human Eg5 mRNA; siRNA targeting Eg5): < 10 µM
transfection in the presence of medium with reduced serum concentration (human Aha1 mRNA): can still mediate transfection
uptake / localization in brain endothelial cells [1]: accumulates (i.e. internalizes) under these assay conditions in endosomal structures; also recorded: localizes to intracellular endosomal structures
peptide concentration at which cell growth/viability was affected (MCF7 cells [2]): above 10 μM
interference with cell viability at doses effective for Eg5 knockdown (MCF7 cells [3]; <10 μM): does not interfere with cell viability
cell viability / growth inhibition / toxicity (CellTiter-Glo, GAPDH mRNA levels) (MCF7 cells [3]; MCF7 cells, peptide 1 μM to 20 μM): only minor effects on cell viability
